“Also recorded” adds a separate entry of the source.
How the values were obtained:
[1] = test system: HFD/STZ mice; assay: 8-week treatment of HFD/STZ mice; type: in vivo
Method: For generation of nongenetic mice model of type 2 diabetes, ICR mice were fed with high fat diet (HFD, with 60% fat, Research Diets) for three weeks, then fasted for 5 h before receiving a single dose of streptozotocin (STZ, Sigma) intraperitoneally (ip) at 80 mg/kg to induce partial insulin deficiency. […] Diabetes was assessed using conventional criteria. Mice with similar degree of hyperglycemia and body weight were randomized into various groups in order to get a similar average PBG in each group.
Diabetic mice in group of four were treated by gavage with vehicle (0.5% carboxymethylcellulose, CMC, Sigma), WB403 50, 100 mg/kg or sitagliptin at 100 mg/kg daily for 4 weeks in db/db mice (n = 5 with chow diet), and 8 weeks in HFD/STZ mice (n = 8 with HFD, additional normal mice group with chow diet). During the entire dosing period, body weight, food intake and water intake were monitored three times per week, while FBG and PBG were measured weekly. Overnight fasted mice received an oral glucose challenge at 2 g/kg and postprandial 2 h blood glucose was measured. Animals were treated and assessed in the order of the vehicle, WB403 50, 100 mg/kg and sitagliptin 100 mg/kg group.
Fig 4 WB403 improved hyperglycemia of HFD/STZ mice. Mice were treated with different concentration of WB403, vehicle or sitagliptin. FBG (A) and PBG (B) were measured every week during the 8-week treatment period. (C, D) HbA1c levels in serum. Values are mean ± SEM (n = 8). *p<0.05, **p<0.01, ***p<0.001 vs. vehicle group.

[2] = test system: normal mice; assay: oral glucose tolerance test in normal mice; type: in vivo; settings: 4 g/kg glucose, oral 50, 100 mg/kg 30 min before load
Method: Mice were fasted overnight (14 h) before glucose tolerance tests. Normal mice received a 4 g/kg glucose challenge and for diabetic mice it’s 2 g/kg. WB403 at 50, 100 mg/kg, or sitagliptin at 100 mg/kg were administrated orally 30 min prior to glucose load (n = 10). For vehicle group, 0.5% CMC was administrated. Blood glucose levels were measured from tail bleeds with a glucometer (Roche, Accu-Chek Performa) at specified time points. Animals were treated and assessed in the order of the vehicle, WB403 50, 100 mg/kg and sitagliptin 100 mg/kg group.
Fig 2 Effects of WB403 on glucose tolerance during OGTT in normal and diabetic mice. OGTT time course and AUC in normal mice (A, B), HFD/STZ mice (C, D) and db/db mice (E, F). Values represent mean ± SD (n = 10). *p<0.05, **p<0.01, ***p<0.001 vs. vehicle group. Asterisks in A, C and E reflect significance between WB403 100 mg/kg and vehicle group.

[3] = test system: HFD/STZ mice; assay: pancreas histology (H&E) of treated HFD/STZ mice; type: in vivo; settings: after 8-week treatment
Method: Analysis of islet cell mass was performed using conventional methods. In brief, mice were sacrificed by cervical dislocation. The body part of the pancreas was rapidly excised, fixed in 10% neutral buffered formalin solution for 24 h and embedded in paraffin, then sectioned at 5 μm ready for hematoxylin and eosin (H&E) staining and immunohistochemistry staining (IHC). The latter was carried out using rabbit anti-insulin polyclonal antibody (Cat. no. 4590, 1:600) and rabbit anti-glucagon monoclonal antibody (Cat. no. 8233s, 1:200) from Cell Signaling Technology.
Fig 5 WB403 preserved the mass of pancreatic β-cells and normal distribution of α and β-cells. (A) H&E staining of pancreas from db/db mice, and statistical result. Islets were sized by the Image J analysis software on alternated pancreatic sections spaced each by 100 μm. (B) Immunohistochemical analysis of pancreatic sections by anti-insulin antibody or anti-glucagon antibody. (C) H&E staining of pancreas from HFD/STZ mice, and statistical result. Results are representative islets from each group. 1–5 in the column graph on the right represents normal mice, diabetic mice treated with vehicle, WB403 50 mg/kg, WB403 100 mg/kg, sitagliptin 100 mg/kg respectively (n = 5). *p<0.05, **p<0.01, ***p<0.001 vs. diabetes-vehicle group.

[4] = biological target: T1, hGPR40 (Homo sapiens, UniProt O14842); assay: GPR40-dependent calcium mobilization in 293-GPR40 stable cells; type: cell-based; settings: 5, 10, 50 μmol/l
T1 construct: expressed in transfected cells
Method: For human TGR5 luciferase (luc) assay, 293T cells were co-transfected with pCRE-luc, pTGR5 (kind gift from Prof. Johan Auwerx, Ecole Polytechnique Fédérale de Lausanne, Lausanne, Switzerland) and pRenilla (Promega, USA). WB403 was added 5 h later. Cells were harvested after 16 h and subjected to luciferase analysis on Lumistar Optima chemiluminescent detector (BMG labtech, Germany). For cAMP testing, 293T cells transiently transfected with pTGR5 or pGPR119 (GeneCopoeia, USA) were washed by FBS-free DMEM, and stimulated with WB403 in FBS-free DMEM containing 3-isobutyl-1-methyl-xanthine (IBMX, Sigma). Cell lysates were collected 30 min later and used for cAMP ELISA assay. FLIPR Calcium 5 assay kit (Molecular Devices, USA) was used for calcium mobilization assay. 293-GPR40 stable cells (kindly provided by Prof. Naiming Zhou of Zhejiang University, Hanzhou, China) or 293 cells transient transfected with GPR120 were seeded at 50,000 cells per well in black-walled clear-bottomed 96-well plates (Costar). An equal volume of loading buffer containing Fluo 4-AM was added the following day and cells were incubated for 1 h before stimulated with compounds. Increase of the intracellular Ca^2+ concentration was monitored by Flexstation 3 system (Molecular Devices, USA).
Fig 6 Effect of WB403 on GPCRs related to GLP-1 secretion. (A) GPCR expression in human NCI-H716 and mouse MIN6 cells. […]

[5] = HFD/STZ mice, 50, 100 mg/kg daily, from first week through 8-week treatment

T1 sequence (O14842 whole entry): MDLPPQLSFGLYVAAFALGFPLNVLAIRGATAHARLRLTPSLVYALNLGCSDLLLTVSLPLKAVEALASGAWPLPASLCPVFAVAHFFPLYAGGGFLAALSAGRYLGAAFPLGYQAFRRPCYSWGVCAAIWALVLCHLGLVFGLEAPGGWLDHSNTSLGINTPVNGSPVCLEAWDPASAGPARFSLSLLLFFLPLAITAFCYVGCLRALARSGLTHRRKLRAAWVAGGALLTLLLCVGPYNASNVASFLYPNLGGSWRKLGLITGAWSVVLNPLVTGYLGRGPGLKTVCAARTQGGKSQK

## CCc1cc(-c2nc(C)c(COCc3ccc(Br)cc3)s2)ccn1 [WB403, 4-(5-((4-bromobenzyloxy)-methyl)-4-methylthiazol-2-yl)-2-ethylpyridine]
[1]; HFD/STZ mice, 8-week treatment
  serum HbA1c levels vs vehicle: decreased significantly
[1]; [5]
  FBG vs vehicle: significantly decreased
  PBG vs vehicle: significantly decreased
[2]
  blood glucose tolerance (OGTT) vs vehicle: significant improvement in blood glucose tolerance
[3]
  islet area: restored islet area but did not expand it beyond that of normal mice
[4]
  hGPR40-Ca2+ activation (calcium mobilization): neither did it exhibit significant effect; also recorded: no significant effect
